Measurements reported in patent US10189863B2, “5,6-dihydro-4H-benzo[b]thieno-[2,3-d]azepine derivatives” (PULMOCIDE LIMITED, priority 2014, dated 2019).

Experiments:
RSV B Washington strain = test: Assessment of RSV induced CPE in HEp2 cells (RSV B Washington strain); type: cell-based; details: human respiratory syncytial virus, HEp2 cells; for IC50: HEp-2, 144 h, 1 MOI, 6 days, read-out: RSV B CPE IC50; for inhibition at 1 µg/mL: Inhibition (%) at 1 μg/mL, read-out: RSV B CPE % Inhibition
Protocol: (§1) Assessment of RSV Induced CPE in HEp2 Cells
(§2) HEp2 cells were seeded (10^3/well/50 μL) in 384-well plates (Catalogue number 353962, BD Falcon, Oxford, UK) in […] containing 2 mM L-glutamine and 1 mM sodium pyruvate one day before infection. RSV A2 strain (#0709161v, NCPV, Public Health England, Wiltshire) or RSV B Washington strain (VR-1580, ATCC, Manassas, Va. 20108) virus solutions were prepared in serum free-DMEM with 2 mM L-glutamine and 1 mM sodium pyruvate, and then added (50 μL/well) to achieve a final virus concentration of 1 MOI. Simultaneously test compounds (0.5 μL DMSO solution) were added to 100 μL of HEp2 cell culture with virus solution to provide a final DMSO solution of 0.5%. Plates were incubated (37° C./5% CO2) for 5 days for studies using RSV A2 strain or 6 days for those using RSV B strain, and then resazurin sodium salt (5 μL of 0.03% solution; Sigma-Aldrich, Dorset, UK) was added to each well and the plate incubated for a further 6 hr (37° C./5% CO2). The fluorescence of each well [545 nm (excitation)/590 nm (emission)] was determined using a multi-scanner (Clariostar: BMG, Buckinghamshire, UK). The percentage inhibition for each well was calculated and the IC50, IC75 and IC90 values were calculated from the concentration-response curve generated for each test compound.

RSV A2 strain = test: Assessment of RSV induced CPE in HEp2 cells (RSV A2 strain); type: cell-based; details: human respiratory syncytial virus, HEp2 cells; for IC50: HEp-2, 120 h, 1 MOI, 5 days, read-out: RSV A2 CPE IC50; for inhibition at 0.1 µg/mL / inhibition at 0.01 µg/mL: HEp-2; for inhibition at 0.1 µg/mL: Inhibition (%) at 0.1 μg/mL, read-out: RSV A2 CPE % Inhibition; for inhibition at 0.01 µg/mL: Inhibition (%) at 0.01 μg/mL
Protocol: as §1, §2

[1] = Cell viability: resazurin assay; type: cell-based, human; details: human, HEp2 cells
Protocol: Cell Viability: Resazurin Assay
HEp2 cells were seeded in 384-well plates (10^3/well/50 μL; BD Falcon Ref 353962) in FBS DMEM (5%, containing 2 mM L-glutamine and 1 mM sodium pyruvate) one day before experimentation. Serum-free DMEM (50 μL) was added to test wells while for control wells the media was removed and sterile water (100 μL) was added. Test compounds (0.5 μL DMSO solution) were added to give a final DMSO concentration of 0.5%. Hep2 cells were incubated with each test compound for 5 days (37° C./5% CO2 in 5% FBS) and then resazurin stock solution (5 μL; 0.03%) was added to each well and the plate incubated for a further 6 hr (37° C./5% CO2). The fluorescence of each well at 545 nm (excitation) and 590 nm (emission) was determined using a multi-scanner (Clariostar: BMG Labtech). The percentage loss of cell viability was calculated for each well relative to vehicle (0.5% DMSO) treatment.
Any apparent increase in cell viability associated with test compound treatment relative to vehicle is consequently tabulated as a negative percentage. Where appropriate, a CC50 value was calculated from the concentration-response curve generated from the concentration-response curve for each test compound.

Row | IC50 (RSV B Washington strain) | IC50 (RSV A2 strain) | SMILES | inhibition at 1 µg/mL (RSV B Washington strain; HEp-2) | inhibition at 0.1 µg/mL (RSV A2 strain) | CC50 at 5 days [1] | inhibition at 0.1 µg/mL (RSV B Washington strain; HEp-2, Inhibition (%) at 0.1 μg/mL) | inhibition at 0.01 µg/mL (RSV A2 strain)
1 | 1.5 nM | 0.14 nM | Cc1cnc(N2CC3(CCOCC3)C2)c(C(=O)Nc2ccc(C(=O)N3CCc4cc(C(=O)Nc5c(F)cc(F)cc5F)sc4-c4ccccc43)cc2)c1 [Example 48, 6-(4-(5-methyl-2-(7-oxa-2-azaspiro[3.5]nonan-2-yl)nicotinamido)benzoyl)-N-(2,4,6-trifluorophenyl)-5,6-dihydro-4H-benzo[b]thieno[2,3-d]azepine-2-carboxamide] | 100% | 100% | > 13600 nM | – | –
2 | 15.5 nM | 0.61 nM | COc1cnc(N2CC3(CCOCC3)C2)c(C(=O)Nc2ccc(C(=O)N3CCc4cc(C(=O)Nc5c(C)cccc5F)sc4-c4ccccc43)cc2)c1 [Example 71, N-(2-fluoro-6-methylphenyl)-6-(4-(5-methoxy-2-(7-oxa-2-azaspiro[3.5]nonan-2-yl)nicotinamido)benzoyl)-5,6-di-hydro-4H-benzo[b]thieno[2,3-d]azepine-2-carboxamide] | – | – | > 13700 nM | 100% | 100%
3 | 62.8 nM | 0.14 nM | Cc1cnc(N2CC3(CCOCC3)C2)c(C(=O)Nc2ccc(C(=O)N3CCc4cc(C(=O)Nc5ccccc5C)sc4-c4ccccc43)cc2)c1 [Example 35, 6-(4-(5-methyl-2-(7-oxa-2-azaspiro[3.5]nonan-2-yl)nicotinamido)benzoyl)-N-(o-tolyl)-5,6-dihydro-4H-benzo[b] thieno[2,3-d]azepine-2-carboxamide] | 70% | 100% | > 14300 nM | – | –
4 | 508 nM | 1.8 nM | Cc1cnc(N2CC3(COC3)C2)c(C(=O)Nc2ccc(C(=O)N3CCc4cc(C(=O)Nc5c(C)cccc5F)sc4-c4ccccc43)cc2)c1 [Example 90, N-(2-fluoro-6-methylphenyl)-6-(4-(5-methyl-2-(2-oxa-6-azaspiro[3.3]heptan-6-yl)nicotinamido)benzoyl)-5,6-dihydro-4H-benzo[b]thieno[2,3-d]azepine-2-carboxamide] | 99% | – | > 14500 nM | – | 100%
5 | 16.2 nM | 0.13 nM | Cc1cc(C(=O)Nc2ccc(C(=O)N3CCc4cc(C(=O)Nc5c(C)cccc5F)sc4-c4ccccc43)cc2)c(N2CC3(CCOCC3)C2)nc1C [Example 44, 6-(4-(5,6-dimethyl-2-(7-oxa-2-azaspiro[3.5]nonan-2-yl)nicotinamido)benzoyl)-N-(2-fluoro-6-methylphenyl)-5,6-dihydro-4H-benzo[b]thieno[2,3-d]azepine-2-carboxamide] | 76% | 100% | > 13700 nM | – | –
6 | 129 nM | 0.36 nM | O=C(Nc1ccc(F)cc1F)c1cc2c(s1)-c1ccccc1N(C(=O)c1ccc(NC(=O)c3cccnc3N3CC4(CCOCC4)C3)cc1)CC2 [Example 20, 6-(4-(2-(7-oxa-2-azaspiro[3.5]nonan-2-yl)nicotinamido)benzoyl)-N-(2,4-difluorophenyl)-5,6-dihydro-4H-benzo[b] thieno[2,3-d]azepine-2-carboxamide] | 80% | 100% | > 14200 nM | – | –
7 | 59.3 nM | 0.56 nM | Cc1cnc(N2CCC3(CC2)COC3)c(C(=O)Nc2ccc(C(=O)N3CCc4cc(C(=O)Nc5c(F)cccc5Cl)sc4-c4ccccc43)cc2)c1 [Example 93, N-(2-chloro-6-fluorophenyl)-6-(4-(5-methyl-2-(2-oxa-7-azaspiro[3.5]nonan-7-yl)nicotinamido)benzoyl)-5,6-dihydro-4H-benzo[b]thieno[2,3-d]azepine-2-carboxamide] | 100% | – | > 13600 nM | – | 98%
8 | 1.8 nM | 2.3 nM | O=C(Nc1c(F)cccc1F)c1cc2c(s1)-c1ccccc1N(C(=O)c1ccc(NC(=O)c3cc4c(nc3N3CC5(CCOCC5)C3)CCC4)cc1F)CC2 [Example 79, 6-(4-(2-(7-oxa-2-azaspiro[3.5]nonan-2-yl)-6,7-dihydro-5H-cyclopenta[b]pyridine-3-carboxamido)-2-fluorobenzoyl)-N-(2,6-difluorophenyl)-5,6-dihydro-4H-benzo[b]thieno[2,3-d]azepine-2-carboxamide] | 93% | – | > 13100 nM | – | 92%
9 | 60.5 nM | 0.14 nM | Cc1ccccc1NC(=O)c1cc2c(s1)-c1ccccc1N(C(=O)c1ccc(NC(=O)c3cc(C)c(C)nc3N3CC4(CCOCC4)C3)cc1)CC2 [Example 42, 6-(4-(5,6-dimethyl-2-(7-oxa-2-azaspiro[3.5]nonan-2-yl)nicotinamido)benzoyl)-N-(o-tolyl)-5,6-dihydro-4H-benzo[b] thieno[2,3-d]azepine-2-carboxamide] | 80% | 97% | > 14000 nM | – | –
10 | 25.9 nM | 0.28 nM | Cc1cccc(F)c1NC(=O)c1cc2c(s1)-c1ccccc1N(C(=O)c1ccc(NC(=O)c3cc(C4CC4)cnc3N3CC4(CCOCC4)C3)cc1)CC2 [Example 11, 6-(4-(5-Cyclopropyl-2-(7-oxa-2-azaspiro[3,5]nonan-2-yl)nicotinamido)benzoyl)-N-(2-fluoro-6-methylphenyl)-5,6-dihydro-4H-benzo[b]thieno[2,3-d]azepine-2-carboxamide] | 95% | 93% | > 13500 nM | – | –
11 | 4.1 nM | 0.13 nM | CCc1cnc(N2CC3(CCOCC3)C2)c(C(=O)Nc2ccc(C(=O)N3CCc4cc(C(=O)Nc5c(F)cccc5Cl)sc4-c4ccccc43)cc2)c1 [Example 61, N-(2-chloro-6-fluorophenyl)-6-(4-(5-ethyl-2-(7-oxa-2-azaspiro[3.5]nonan-2-yl)nicotinamido)benzoyl)-5,6-dihydro-4H-benzo[b]thieno[2,3-d]azepine-2-carboxamide] | 100% | 97% | > 13300 nM | – | –
12 | 6.5 nM | 0.17 nM | COCc1cnc(N2CC3(CCOCC3)C2)c(C(=O)Nc2ccc(C(=O)N3CCc4cc(C(=O)Nc5c(F)cccc5Cl)sc4-c4ccccc43)cc2)c1 [Example 67, N-(2-chloro-6-fluorophenyl)-6-(4-(5-(methoxymethyl)-2-(7-oxa-2-azaspiro[3.5]nonan-2-yl)nicotinamido)benzoyl)-5,6-dihydro-4H-benzo[b]thieno[2,3-d]azepine-2-carboxamide] | 100% | – | > 13100 nM | – | 100%
13 | 1.2 nM | 0.18 nM | [2H]c1c([2H])c(C(=O)N2CCc3cc(C(=O)Nc4c(C)cccc4F)sc3-c3ccccc32)c([2H])c([2H])c1NC(=O)c1cc(C)cnc1N1CC2(CCOCC2)C1 [Example 70] | 100% | – | > 13900 nM | – | 76%
14 | 9.5 nM | 0.14 nM | CCc1cnc(N2CC3(CCOCC3)C2)c(C(=O)Nc2ccc(C(=O)N3CCc4cc(C(=O)Nc5c(C)cccc5F)sc4-c4ccccc43)cc2)c1 [Example 60, 6-(4-(5-ethyl-2-(7-oxa-2-azaspiro[3.5]nonan-2-yl)nicotinamido)benzoyl)-N-(2-fluoro-6-methylphenyl)-5,6-dihydro-4H-benzo[b]thieno[2,3-d]azepine-2-carboxamide] | 100% | 92% | > 13700 nM | – | –
15 | 59.4 nM | 0.12 nM | Cc1cc(C(=O)Nc2ccc(C(=O)N3CCc4cc(C(=O)Nc5ccccc5F)sc4-c4ccccc43)cc2)c(N2CC3(CCOCC3)C2)nc1C [Example 43, 6-(4-(5,6-dimethyl-2-(7-oxa-2-azaspiro[3.5]nonan-2-yl)nicotinamido)benzoyl)-N-(2-fluorophenyl)-5,6-dihydro-4H-benzo[b]thieno[2,3-d]azepine-2-carboxamide] | 72% | 100% | > 14000 nM | – | –
